The text below walks through data of article PMC4335544 (Critical Care, 2015).

A short description of data set [1]: Spontaneous drug degradation in control polypropylene tubes (whole blood). The note with it: human whole blood, polypropylene tubes under agitation at 25°C, up to 48 hours; HPLC-UV or immuno-enzymatic method. The data set is classed as in vitro ADME.
For data set [2] the following is noted: 37°C, 4.5 L/minute.
Experimental: Whole ECMO circuits (Maquet®, Orleans, France) comprising a Quadrox® membrane oxygenator, a centrifugal pump, a heat exchanger and PVC tubing were used for ex vivo tests. All components of the circuit were treated with heparin (Bioline coating®, Maquet). Drug-free human whole blood (800 mL) was used to prime the circuit. In order to replicate the in vivo operating conditions, the temperature of the circulating blood was set at 37°C and circuit flow rate at 4.5 L/minute.
During ex vivo ECMO runs, serial post-membrane blood samples were obtained at 30 minutes, 1 hour, 2 hours, 3 hours, 4 hours, 5 hours, 24 hours and 48 hours after drug introduction into the circuit. Until analysis, samples were kept at 4°C and plasma separated and frozen at −20°C. To determine spontaneous drug degradation, blood containing identical concentrations of the drugs studied was kept in polypropylene tubes under agitation at 25°C for the same time before measurements.
Propofol and midazolam concentrations were measured using high performance liquid chromatography with an ultra-violet detector (Waters, Milford, MA, USA).
Changes of mean drug concentrations over time were compared between control and experimental conditions by modeling using a linear mixed effect model. […] Model choice was guided by the lowest Akaike criteria value. The mixed effect model was then fitted with R software version 3.0.2 and the ‘nlme’ library [10].
The conditions of data set [3]: octanol/water; ref 13-16 (Drug Bank); cited from earlier work.
For data set [4] the following is noted: cited from earlier work. The source says: Vancomycin, which is the drug of choice for treating beta-lactam resistant Gram-positive bacteria, is frequently prescribed to ECMO patients.
How the values of data set [5] were obtained: To further explore the role of temperature, oxygen exposure and PVC surfaces on propofol loss in the ECMO circuit, the following experiments were conducted. A polypropylene tube containing human whole blood was spiked with the propofol stock solution to obtain a concentration of […]. The effect of the temperature, oxygen exposure and contact with PVC surfaces were assessed by incubating the tube at 37°C, applying oxygen (1 L/minute) for 10 seconds to the preparation and by distributing the preparation into 5-cm PVC tubes, respectively. Polypropylene tubes containing blood and propofol at the same concentration were stored at room temperature and were used as controls. Propofol concentrations were measured at 0 minutes, 5 minutes, 10 minutes, 15 minutes, 20 minutes, 25 minutes, 30 minutes and 45 minutes from each preparation. These experiments were conducted in triplicate.

As to `Cc1ncc2n1-c1ccc(Cl)cc1C(c1ccccc1F)=NC2` [Midazolam], in data set [1], the “concentration over time in control polypropylene tubes” value (“concentration over time” for short) is listed as “remained stable”. Moreover, the “baseline concentration detected in ECMO circuit” value in data set [2] (at 30 minutes, human whole blood, HPLC-UV, mean of n = 3 circuits) is given as 54%. Moreover, in data set [2] (at 24 hours, human whole blood, midazolam HPLC-UV, cyclosporine immuno-enzymatic method, mean of n = 3 circuits), the “baseline concentration remaining in ECMO circuit” value was 11%. Besides, the “Partition coefficient (log P)” value in data set [3] is on record as 3.9.
In the case of Vancomycin, in data set [1], the “concentration over time” value is “remained stable”. Also, in data set [2] (during the 48 hours of the protocol, human whole blood, immuno-enzymatic method, n = 3 circuits), the “concentration in ECMO circuit, result in words” value is “remained stable”. Further, in data set [4] (circuit which had been running for five days, ref 3 (Dagan et al.)), the “decrease in concentration, used circuit” value is listed as 11%. Also, in data set [4] (drug introduced in a new circuit, ref 3 (Dagan et al.)), the “decrease in concentration, new circuit” value is 36%. Moreover, the “levels in ECMO circuit, result in words” value in data set [4] (ex vivo models, 24 hours, ref 20 (Mehta et al.), ref 19 (Shekar et al.)) is listed as “remained unchanged”. In addition, in data set [4] (neonatal and pediatric circuits, ref 6 (Wildschut et al.)), the “decrease in concentration, neonatal and pediatric circuits” value is “up to 46%”.
For `CC(C)c1cccc(C(C)C)c1O` [Propofol], the “concentration over time” value in data set [1] is recorded as “remained stable”. For the same molecule, the “loss of propofol on contact with PVC tubing” value in data set [5] (after 45 minutes, human whole blood distributed into 5-cm PVC tubes, propofol 2 μg/L as printed, mean of n = 3) came to 85%. Also, the “loss of propofol on oxygen exposure” value in data set [5] (after 45 minutes, human whole blood in polypropylene tube, oxygen 1 L/minute for 10 seconds, propofol 2 μg/L as printed, mean of n = 3) is 70%. Moreover, the “effect of heating to 37°C on propofol concentration” value in data set [5] (polypropylene tube with human whole blood at 37°C, up to 45 minutes, n = 3) was “no effect”. For the same molecule, the “baseline concentration lost in ECMO circuit” value in data set [2] (30 minutes after introduction, Maquet circuit, Quadrox oxygenator, PVC tubing, heparin coating, 800 mL human whole blood, propofol 2 μg/mL, HPLC-UV, mean of n = 3 circuits) is given as 70%. Also, the “initial concentration remaining in ECMO circuit” value in data set [2] (after 5 hours, human whole blood, HPLC-UV, mean of n = 3 circuits) is reported as 11%. Further, the “fraction remaining in ECMO circuit” value in data set [2] (beyond 24 hours, human whole blood, HPLC-UV, n = 3 circuits) is given as “negligible”. Also, in data set [3], the “Partition coefficient (log P)” value is on record as 4.0.
